Assays:
MC38 syngeneic tumors = assay: Antitumor activity in syngenic murine MC38 CRC model (subcutaneous tumors); assay type: in vivo, mice
Protocol: The combinatorial activity of regorafenib and anti-mouse PD-1 antibody (RMP1-14, Peng et al., Cancer Res., (2012) 72(20), 5209-5218) was investigated in a syngenic murine MC38 CRC model
MC38 syngeneic tumors were grown subcutaneously in mice and treated with regorafenib and/or anti-mouse PD-1 antibody (RMP1-14) according to the following regimens: […]
Control animals were treated concomitantly with the regorafenib vehicle (PluronicF68/PEG400/Propylenglycol (15/42,5/42,5+20% aqua)) and a non-binding isotype control antibody (rat IgG2a, clone 2A3). Tumor growth was monitored by caliper measurement and the tumor area was calculated using the formula a×b where a and b are the long and short diameters of the tumor, respectively. Tumor weights were measured after completion of the study. Tumor vs control (T/C) was calculated using vehicle treated animals as reference.

CT26 syngeneic tumors = assay: Liver metastases in syngenic murine CT26 CRC model (orthotopic tumors); assay type: in vivo, mice
Protocol: The combinatorial activity of regorafenib and anti-mouse PD-1 antibody (RMP1-14, Peng et al., Cancer Res., (2012) 72(20), 5209-5218) was investigated in a syngenic murine CT26 CRC model
CT26 syngeneic tumors were grown orthotopically in mice (Abou-Elkacem et al., Mol Cancer Ther. 2013 July; 12(7):1322-31) and treated with regorafenib and/or anti-mouse PD-1 antibody (RMP1-14) according to the following regimens:
a) regorafenib alone at a dose of 30 mg/kg per day once daily for 10 days as a PluronicF68/PEG400/Propylenglycol/water (12/34/34/20) po (per oral) formulation using the formulation vehicle alone as control or in a combination with an unspecific control antibody given intraperitoneally (i.p.) at a dose of 20 mg/kg in PBS every third day. b) anti-mouse PD-1 antibody (RMP1-14) alone dosed at 20 mg/kg every third day for four times as a PBS i.p. formulation and an unspecific antibody was used as control c) in combination, regorafenib at a dose of 20 mg/kg per day once daily for 10 days as a PluronicF68/PEG400/Propylenglycol/water (/12/34/34/20) p.o. formulation and anti-mouse PD-1 antibody (RMP1-14) dosed at 20 mg/kg every third day for four times as a PBS i.p. formulation,
Mice were sacrificed at the end of treatment or at the end of the observation period and livers were screened macroscopically for metastases on their surface. The number of mice with liver metastases was then related to the total number of mice in the respective study arm.

[1] = d 14 p.i., after treatment, single agent
[2] = d 25 p.i., observation period after treatment stop at d 14, regorafenib plus control antibody

**Q.** For `CNC(=O)c1cc(Oc2ccc(NC(=O)Nc3ccc(Cl)c(C(F)(F)F)c3)c(F)c2)ccn1` [Regorafenib, 4{4-[3-(4-chloro-3-trifluoromethylphenyl)-ureido]-3-fluorophenoxy}-pyridine-2-carboxylic acid methylamide], which “T/C (area)” value (MC38 syngeneic tumors; regimen a): regorafenib 3 mg/kg po once daily for 15 days plus isotype control 10 mg/kg ip, tumor area vs vehicle) is on record?
**A.** 0.68

**Q.** What about the “T/C (weight)” value (MC38 syngeneic tumors; regimen a): regorafenib 3 mg/kg po once daily for 15 days plus isotype control 10 mg/kg ip, tumor weight at study end vs vehicle) of the same molecule?
**A.** 0.64

**Q.** What about the “growth of MC38 tumors vs control” value (MC38 syngeneic tumors; single agents) of the same molecule?
**A.** inhibited the growth of MC38 tumors vs control

**Q.** And the “# of animals with mets” value (CT26 syngeneic tumors; [1])?
**A.** 0

**Q.** What about the “% animals wirth mets” value (CT26 syngeneic tumors; [1]) of the same molecule?
**A.** 0%

**Q.** And the “# of animals with mets” value (CT26 syngeneic tumors; [2])?
**A.** 8

**Q.** And the “% animals wirth mets” value (CT26 syngeneic tumors; [2])?
**A.** 100%

Reference: US11517622B2, “Combination of regorafenib and PD-1/PD-L1(2) inhibitors for treating cancer” (BAYER AKTIENGESELLSCHAFT, priority 2017, dated 2022)
